Results taken from patent publication US20240033233A1, “COMPOSITIONS AND METHODS FOR DELIVERING PHARMACEUTICAL AGENTS” (Arizona Board of Regents on Behalf of the University of …, priority 2020, published 2024).
Where two headings read alike, the source gives them in different places.

Experiments:
[1] = cited from earlier work
[2] = tested on: UV-induced AP-1 activation; details: acetone solution of resatorvid, mouse epidermis; cited from earlier work
[3] = cited from earlier work; remark: listed apart in the source
[4] = tested on: human transformed keratinocytes (HaCaT); test: In vitro cell dose-response (resazurin viability) in 2-D culture, HaCaT; assay type: cell-based; details: 72 h exposure
Procedure: (§1) The effects of raw TAK-242 powder on the viability of human representative human keratinocyte cell lines exposed to different concentrations were tested. HaCaT (a human transformed keratinocyte from histologically normal skin cell line) and NHEK (a primary normal epidermal keratinocyte cell line) were used as models of the human epidermis, which express keratinocytes in the stratum basale and then move up the final barrier layer of the skin, which is the stratum corneum. The HaCaT cells were grown in Dulbecco's modified Eagle's medium (DMEM), Optimized 1×, 10% (v/v) fetal bovine serum (FBS), and Pen-Strep (100 units/mL penicillin, 100 μg/mL) in a humidified incubator at 37° C. and 5% CO2. NHEK cells were grown NHEK- growth medium provided by MatTek (Ashland, MA, USA) in a humidified incubator at 37° C. and 5% CO2.
After confluence, HaCaT and NHEK cells were seeded in 96-black well plate at a concentration of 5,000 cells in 100 μL of media per well. After 48 hours, cells were then incubated for 48 h to allow attachment to the surface of the plates. Cells were then exposed to different concentrations of TAK-242. The drug solutions were prepared by dissolving raw TAK-242 powder in 5% v/v DMSO and DMEM media to make a solution at 1×. A volume of 100 μL of drug solution was added to each well. After 72 h of exposure and incubation at 37° C. and 5% CO2, 20 μL of 20 μM resazurin sodium salt were added to each well and incubated for 4 h. Fluorescence intensity of resofurin was detected at 544 nm (excitation) and 590 nm (emission) using the Molecular Devices® SpectraMax® M3 Multi-Mode Microplate Reader (Sunnyvale, CA, USA). The relative viability of the cells was calculated as followed by equation 1: […]

[5] = Solubility of resatorvid in solvents (sonication, visual observation); assay type: physicochemical
Procedure: To determine solubility of resatorvid in a liquid formulation, a variety of solvents were tested: phosphate buffered saline, NS, ethanol, and PEG400, all with resatorvid at a concentration of 0.1% w/v and the solutions were sonicated for 1 hour at room temperature.
In addition, a solution of 5% w/v resatorvid in EtOH 140 proof was prepared (1 mL of ETOH and 50 mg of resatorvid). The solution was not translucent and became opaque/cloudy and there was still drug undissolved floating around.
Solutions were made with w/v TAK242+PEG600 and 5% w/v TAK242+100% Acetone. All three solutions were sonicated at room temperature for 1 hour. […] As the solution began to adjust to ambient temperature it started to solidify into a white thick substance almost like lard.
Further experiments were conducted using glycerol as the solvent. 0.0504 g of TAK-242 was weighed out to make a 5.04% w/v solution in 1 mL of glycerol, USP grade. […]. The solution was then sonicated for 60 minutes at 37° C. […] Images were taken at each to document the outcome.
A 5% w/v solution of resatorvid (50mg) and PEG 400 USP (1 mL) was prepared.
(§2) Seven platforms were analyzed for compatibility with TAK-242. The platforms were DermaBASE cream (cream and lotion), PENcream (cream), PEG-400 solution, PG solution, 1% w/v Carbomer 934P resin gel at pH˜7, 2% w/v Sodium hyaluronate gel/serum and 20% w/v Pluronic F127 gel. Solubility of TAK-242 was determined at concentrations ranging from 0.1-5% w/v using PBS (pH=7.41), 0.9% normal saline (NS), HPLC grade ethanol, PEG-400 and PG as solvents. The following step was to test if TAK-242 could be directly incorporated into the platforms mentioned above via non-sterile compounding to determine if the drug would need to be pre-dissolved before incorporation. Determination of how much volume of PEG-400 or PG could be incorporated into the creams and gels without losing consistency while maintaining homogeneity was examined; 1 g of base (cream or gel) was weighed out and was compounded with PEG-400 or PG (500 μL-1000 μL). Drug was then dissolved in appropriate determined volume of compatible solvent and sonicated for 60 minutes, then it was prepared via non-sterile compounding technique and formulations were examined for physical appearance (consistency, homogeneity, visible precipitation, phase separation, compatibility). The only formulation that was different was the Pluronic F127 as everything was mixed in as a liquid at 4° C. and the solution would then solidify at room temperature […] to create the gel which was then mixed thoroughly until homogenous.

[6] = UV-Vis spectra of resatorvid solution in PEG400 on storage; assay type: physicochemical; details: 0.1% w/v in PEG400, 4 days at 25° C.
Description: The solvents that were used were PEG400, EtOH 140 proof, PBS pH 7.4, Acetonitrile, NS, and MeOH. PEG600 was not used as it was too thick. At a concentration of 0.1% w/v it was observed that resatorvid was soluble in PEG400, acetonitrile and EtOH 140 proof and HPLC grade MeOH. 0.01% w/v solutions were also made for some samples to show an acceptable UV-Vis spectra. Resatorvid was not soluble in NS or PBS pH 7.4.
A Molecular Devices® SpectraMax® M3 Multi-Mode Microplate Reader (Sunnyvale, CA, USA) was used to perform UV/Vis spectroscopy. The wavelength range was 190 through 290 nm. A 0.1% w/v solution of TAK-242 in HPLC grade methanol, PEG-400, HPLC grade ethanol, HPLC grade acetonitrile, PBS (pH=7.4) and 0.85% w/v normal saline were made and analyzed under UV visible spectroscopy on a 96-wellplate black clear bottom.

[7] = tested on: primary normal epidermal keratinocytes (NHEK); test: In vitro cell dose-response (resazurin viability) in 2-D culture, NHEK; assay type: cell-based, human; details: 72 h exposure
Procedure: as §1
After confluence, HaCaT and NHEK cells were seeded in 96-black well plate at a concentration of 5,000 cells in 100 μL of media per well. After 48 hours, cells were then incubated for 48 h to allow attachment to the surface of the plates. Cells were then exposed to different concentrations of TAK-242. […] Fluorescence intensity of resofurin was detected at 544 nm (excitation) and 590 nm (emission) using the Molecular Devices® SpectraMax® M3 Multi-Mode Microplate Reader (Sunnyvale, CA, USA). The relative viability of the cells was calculated as followed by equation 1: […]

[8] = Direct incorporation of resatorvid powder into cream bases (solubility/compatibility); assay type: physicochemical; details: room temperature 30 minutes to 1 hour
Procedure: The solubility of the drug as powder was tested on both Dermabase cream as well as PENcream. […] It was a clear indication that the drug would have to be pre-dissolved in a solution before incorporating into the creams.
A variety of cream/lotion formulations were prepared. One gram of Dermabase cream and 0.1 gram of resatorvid were compounded together. […] One gram of PENcream was compounded with 0.1 grams of resatorvid. After compounding the mixture sat for 1 hour at room temp. […] PEG 400 USP and PEG 600 USP at volumes of 0.5 mL, 1 mL and 2 mL were used with 1 gram of cream base. […] PEG 600 USP changed the cream consistency to a lotion for each cream at added volumes 0.5 mL, 1 mL and 2 mL.
as §2

[9] = tested on: p-p38 signal in EpiDerms; test: p-p38 signal after topical resatorvid with or without solar simulated light; assay type: cell-based, human; details: constitutive or UV-induced
[10] = cited from earlier work; remark: listed apart in the source
[11] = In vitro oil-water partitioning coefficient (Log-P), 1-octanol/PBS; assay type: physicochemical; details: for logP: 1-octanol/PBS; for partition coefficient (Log-P): range over pH 6.5, 7.1, 8.8
Procedure: TAK242 raw powder was weighed out (0.003 g) and placed in 2 dram ambered colored glass vials containing equal volumes (1.5 mL) of 1-octanol and PBS (1×, pH=7.4). Various solutions were made, and pH was adjusted and maintained at 6.5, 7.1, 8.8, adjustments were made using 0.1 M HCl solution and 0.1 M NaOH solution. […] The vials were rotated using a Barnstead/Thermolyne Labquake shaker (Dubuque, IA, USA) for 24 hours and then left undisturbed in a vertical position for an additional 24 hours for phase separation between the aqueous and non-aqueous layers. A sample of each layer was carefully withdrawn and then analyzed by a validated HPLC method as describe in the HPLC analysis section under methods.

[12] = series of increasing concentrations

- solubility ([5]; 0.1% w/v in EtOH 140 proof): soluble
- solubility ([5]; 0.1% w/v in EtOH 140 proof, listed as TAK-242): completely dissolved
- solubility ([5]; 0.1% w/v in HPLC grade MeOH): soluble
- solubility ([5]; 0.1% w/v in NS (normal saline)): not soluble
- solubility ([5]; 0.1% w/v in NS (normal saline), listed as TAK-242): failed to dissolve
- solubility ([5]; 0.1% w/v in PBS pH 7.4): not soluble
- solubility ([5]; 0.1% w/v in PBS pH 7.4, listed as TAK-242): failed to dissolve
- solubility ([5]; 0.1% w/v in PEG400): soluble
- solubility ([5]; 0.1% w/v in acetonitrile): soluble
- solubility ([5]; 5% w/v in 100% acetone, sonicated at room temperature 1 hour): dissolved the drug completely
- solubility ([5]; 5% w/v in EtOH 140 proof): only partially dissolved
- solubility ([5]; 5% w/v in PEG 400 USP): no signs of undissolved drug
- solubility ([5]; glycerol USP, 5.04%, 2.5%, 1.25% and 0.625% w/v, sonicated 60 minutes at 37° C.): did not dissolve
- solubility ([5]; w/v in PEG600 (concentration not given), sonicated at room temperature 1 hour): dissolved the drug completely
- stability of drug in solution (UV-VIS spectra) [6]: no changes in the drug
- solubility of drug powder in cream ([8]; Dermabase cream): unable to dissolve in the cream
- solubility of drug powder in cream ([8]; Dermabase cream, listed as Resatorvid (TAK-242)): undissolved and incompatible with creams
- solubility of drug powder in cream ([8]; PENcream): undissolved drug
- solubility of drug powder in cream ([8]; PENcream, listed as Resatorvid (TAK-242)): undissolved and incompatible with creams
- logP ([11]; as quoted, conditions not stated, read-out: log P): 1.54
- logP ([11]; pH 6.5, At 35° C., pH = 6.5, read-out: Experimental (Log P) Average ± SD): 1.65 ± 0.029
- logP ([11]; pH 6.5, At Room temperature/ambient temperature, pH = 6.5, read-out: Experimental (Log P) Average ± SD): 1.58 ± 0.019
- logP ([11]; pH 7.1, At 35° C., pH = 7.1, read-out: Experimental (Log P) Avg. Log-P ± SD): 1.68 ± 0.013
- logP ([11]; pH 7.1, At Room temperature/ambient temperature, pH = 7.1, read-out: Experimental (Log P) Avg. Log-P ± SD): 1.54 ± 0.149
- logP ([11]; pH 8.8, At 35° C., pH = 8.8, read-out: Experimental (Log P) Avg. Log-P ± SD): 0.94 ± 0.023
- logP ([11]; pH 8.8, At Room temperature/ambient temperature, pH = 8.8, read-out: Experimental (Log P) Avg. Log-P ± SD): 0.88 ± 0.06
- partition coefficient (Log-P) ([11]; at 35° C.): 0.94-1.68
- partition coefficient (Log-P) ([11]; at 37° C.): 0.88-1.58
Structure (SMILES): CCOC(=O)C1=CCCC[C@H]1S(=O)(=O)Nc1ccc(F)cc1Cl [Resatorvid]
- experimentally determined pKa reported [1]: 8.0-8.1
- UV-induced AP-1 activation [2]: blocked
- reported solubility ([3]; in DMSO): 10 mg/mL
- reported solubility ([3]; in EtOH): 20 mg/mL
- reported solubility ([3]; in H2O): sparingly soluble
- % cell viability ([4]; 1000 μM): ~70%
- % cell viability ([4]; all concentrations except 1000 μM): ~100%
- toxicity [4, 12]: did not show any significant toxicity
- % cell viability ([7]; all concentrations): ~100%
- toxicity [7, 12]: did not show any significant toxicity
- p-p38 signal [9]: potently blocked
- reported Log P [10]: 2.53
